In US5434159A, “6,11-cyclyl-1,2,3,4,5,6,11,11a-octahydrobenzo[b]quinolines and compositions and method of use thereof” (Sterling Winthrop Inc., priority 1994, dated 1995):
Counter-ions that a name gives are not always drawn.

Columns and labels:
[1] = target: PCP recognition sites (PCP receptor); experiment: [^3 H]TCP Radioreceptor Assay (internal screen); type: binding; conditions: whole rat brain membranes, [^3 H]TCP approx. 1 nM, room temperature 25 min; mean of at least two separate determinations
Description: [^3 H]TCP Radioreceptor Assay (internal screen)
[^3 H]TCP binding to PCP recognition sites was performed as described by Vignon et al. Brain Research 1983, 280, 194-197. Male Spmgue-Dawley rats were sacrificed by decapitation, and whole brains were homogenized in 10 volumes (wt/vol) of cold Tris-HCl buffer (50 mM, pH 7.7) using a Brinkmann Polytron (setting 6, 30 sec). The homogenate was centrifuged at 40,000×g for 10 min at 4° C. The supernatant was decanted, and the homogenization and centrifugation steps were repeated twice as described above. Following this, the pellet was resuspended in Tris-HCl (5 mM, pH 7.7) at a tissue concentration of 0.5-0.75 g/ml, and one ml aliquots were frozen at -70° C. unto use. The binding characteristics for PCP recognition sites were not altered by the freezing of membrane suspensions.
On the day of the assay, membrane aliquots were thawed, resuspended in fresh 5 mM Tris-HCl buffer at a tissue concentration of 1 mg/ml, and stored on ice until use. Each assay tube contained 100 μl of [^3 H]TCP at a final concentration of approximately 1 nM, 100 μl of various concentrations of the compounds of interest, 500 μl of the tissue suspension and 300 μ of buffer to a final assay volume of 1 ml and a final protein concentration of 0.5 mg/tube. Non-specific binding was defined by addition of a final concentration of 100 μM PCP to blank tubes. All tubes were incubated at room temperature for 25 min before termination of the reaction by rapid filtration over Whatman GF/B glass fiber filters that had been presoaked in a solution of 0.5% polyethyleneimine for at least 1 hr prior to use. Filters were washed with three 4 ml volumes of cold Tris buffer. Following addition of scintillation cocktail, the amount of bound radioactivity was determined by liquid scintillation spectrometry using a Beckman LS 5000 TA liquid scintillation counter with an efficiency for tritium of approximately 55%. Inhibition constants (Ki values) were calculated using the EBDA/LIGAND program (McPherson, J. Pharmacol. Meth. 1985, 14, 213-228), purchased from Elsevier/Biosoft, Inc. Results are reported as Ki values which are expressed as the mean of at least two separate determinations.

[2] = test system: NMDA-induced neurotoxicity in cultured cortical neurons; experiment: Antagonism of NMDA-induced Neurotoxicity in Cultured Neurons (LDH activity); type: cell-based, Swiss-Webster mice; conditions: 500 μM NMDA for 30 minutes, LDH 24 hours after removal, day 13 cultured cortical neurons
Description: Antagonism of NMDA-induced Neurotoxicity in Cultured Neurons
Preparation of cultured cortical neurons
Pregnant, Swiss-Webster mice were obtained from Taconic 0 Farms (Germantown, N.Y.) and sacrificed 16 days post conception. Fetuses were removed and placed in a sterile dish containing Hank's balanced salt solution (HBSS), pH 7.4. Brain cortices were dissected, meninges were removed, the tissue was minced and placed into a solution of HBSS containing 0.25% (w/v) trypsin at 37° C. for 15 minutes. Tissue was then triturated with a sterile pasteur pipet, diluted with minimal essential media (Gibco 330-1430), pH 7.4, supplemented with 10% horse serum, 10% fetal calf serum, 2 mM l-glutamine, 21 mM d-glucose, 2.2 g/L sodium bicarbonate, 1000 U/ml penicillin, and 1,000 μg/ml streptomycin. Cells were plated onto Falcon primaria 96 well plates at a final density of 50,000 cells/well and incubated at 37° C. in the presence of 5% (v/v) carbon dioxide. After 5 days, plating media was replaced with maintenance media containing minimal essential media (Gibco 330-1430), pH 7.4, supplemented with 10% horse serum, […], 21 mM d-glucose, 2.2 g/l sodium bicarbonate, 1,000 U/ml penicillin, 1,000 μg/ml streptomycin, and 10 μM cytosine arabinoside. On days 7 and 10, media was replaced with maintenance media as above lacking the cytosine arabinoside. Experiments were conducted on day 13.
Neuroprotection Assessment
Day 13 cultured cortical neurons were washed twice with minimal essential media, pH 7.4 and then exposed for 30 minutes to 500 μM N-methyl-D-aspartic acid (NMDA) with or without varying concentrations of test agents. Dizocilpine (MK-801) at a final concentration of 10 μM MK-801 was routinely included as a positive control. MK-801 and test agents were prepared in minimal essential media supplemented with 21 mM d-glucose and 2.2 g/L sodium bicarbonate (MEM). After 30 minutes, media was replaced with MEM alone. Exposure of neurons to test agents was limited to the NMDA treatment period. […]

[3] = test system: PCP recognition sites (PCP receptor); experiment: [^3 H]TCP Radioreceptor Assay (external screen); type: binding; conditions: @10 μM; whole rat forebrain membranes, 25° C., 60 minutes
Description: Representative compounds of the invention were also tested in an external [^3 H]TCP radioreceptor assay using the following protocol:
[^3 H]TCP Radioreceptor Assay (external screen)
A procedure similar to that described above for the [^3 H]TCP radioreceptor assay (internal screen) was utilized except that the whole rat forebrain membranes were incubated at 25° C. for 60 minutes rather than at room temperature for 25 minutes, before termination of the reaction. The results are reported as a percent (%) inhibition of binding at 10 μM.

Compound | Ki [1] | also measured
6,11 [2',3']tetrahydrofuranyl-1,2,3,4,5,6,11,11a-octahydrobenzo [b]quinolizine hydrobromide [Example 8] | 606 nM | IC50 [2]: 12200 nM
6,11 [2',3']tetrahydropyranyl-1,2,3,4,5,6,11,11a-octahydrobenzo[b]quinolizine hydrobromide [Example 7] | 1420 nM | 
c1ccc2c(c1)C1C3CCCCC3C2N2CCCCC12 (centres unmarked) [Example 1a, 6,11 [1',2']cyclohexyl-1,2,3,4,5,6,11:11a-octahydrobenzo[b]quinolizine] | 134 nM | 
c1ccc2c(c1)C1c3ccccc3C2N2CCCCC12 (centres unmarked) [Example 1b, 6,11 [1',2']benzeno-1,2,3,4,5,6,11,11a-octahydrobenzo[b]quinolizine] | 333 nM | 
CC12c3ccccc3C(C3CCCC31)N1CCCCC12 (centres unmarked) [Example 2, 11-methyl-6,11 [1',2']cyclopentyl-1,2,3,4,5,6,11,11a-octahydrobenzo[b]quinolizine] | 40 nM | 
Oc1ccc2c(c1)C1C3CCCC3C2C2CCCCN21 (centres unmarked) [Example 3b, 8-hydroxy-6,11 [1',2']cyclopentyl-1,2,3,4,5,6,11,11a-octahydrobenzo[b]quinolizine hydrobromide] | 27.9 nM | 
Brc1ccc2c(c1)C1C3CCCC3C2N2CCCCC12 (centres unmarked) [Example 4, 9-bromo-6,11 [1',2']cyclopentyl-1,2,3,4,5,6,11,11a-octahydrobenzo[b]quinolizine hydrobromide] | 43.7 nM | 
Fc1ccc2c(c1)C1C3CCCC3C2N2CCCCC12 (centres unmarked) [Example 5, 9-fluoro-6,11[1',2']cyclopentyl-1,2,3,4,5,6,11,11a-octahydrobenzo[b]quinolizine fumarate] | 20 nM | 
Nc1ccc2c(c1)C1C3CCCC3C2N2CCCCC12 (centres unmarked) [Example 6, 9-amino-6,11 [1',2']cyclopentyl-1,2,3,4,5,6,11,11a-octahydrobenzo[b]quinolizine] | 11.8 nM | 
c1ccc2c(c1)C1C3CCCC3C2N2CCCCC12 (centres unmarked) [Example 9a, 6,11 [1',2']cyclopentyl-1,2,3,4,5,6,11,11a-octahydrobenzo[b]quinolizine hydrobromide] | 15.4 nM | [^3 H]TCP (external screen) Percent inhibition [3]: 100%; IC50 ([2]; Mus musculus, Cortical neurone): 100 nM
Oc1ccc2c(c1)C1C3CCCC3C2N2CCCCC12 (centres unmarked) [Example 10b, 9-hydroxy-6:11 [1',2']cyclopentyl-1,2,3,4,5,6,11,11a-octahydrobenzo [b]quinolizine hydrobromide] | 2.31 nM | IC50 ([2]; Mus musculus, Cortical neurone): 42 nM
c1ccc2c(c1)C1C3CCCCC3C2N2CCCCC12 (centres unmarked) [Example 11, 6,11 [1',2']cyclohexyl-1,2,3,4,5,6,11,11a-octahydrobenzo[b]quinolizine] | 219 nM | 
Oc1cccc2c1C1C3CCCC3C2N2CCCCC12 (centres unmarked) [Example 12b, 10-hydroxy-6,11 [1',2']cyclopentyl-1,2,3,4,5,6,11,11a-octhydrobenzo[b]quinolizine hydrobromide] | 2.29 nM | 
CC12c3ccccc3C(C3CCCC31)C1CCCCN12 (centres unmarked) [Example 13, 6-methyl-6,11 [1',2']cyclopentyl-1,2,3,4,5,6,11,11a-octahydrobenzo [b]quinolizine] | 8.87 nM | 
[O-][N+]12CCCCC1C1c3ccccc3C2C2CCCC21 (centres unmarked) [Example 14, 6,11 [1',2']cyclopentyl-1,2,3,4,5,6,11,11a-octahydrobenzo[b]quinolizine-5-oxide] | 33.1 nM | 
C[N+]12CCCCC1C1c3ccccc3C2C2CCCC21 (centres unmarked) [Example 15, 5-methyl-6,11 [1',2']cyclopentyl-1,2,3,4,5,6,11,11a-octahydrobenzo[b]quinolizinium bromide] | 22.3 nM | 
